The results in this text go back to patent US12479847B2 (DANA-FARBER CANCER INSTITUTE, INC., priority 2019, dated 2025).

What all share (assay): KINOMEscan (ScanMAX) kinase profiling
Common to all, as to assay type: binding

Experiment [1] has as its target T1, panel of 468 kinases (Homo sapiens, UniProt P19525).
T1 construct: purchased KINOMEscan (ScanMAX) service
The note with it: PRKR; 1 μM; read-out: % control.

Experiment [2] addresses T2, panel of 468 kinases (Homo sapiens, UniProt P57059).
T2 construct: purchased KINOMEscan (ScanMAX) service
As to conditions: SIK; 1 μM; read-out: % control.

Experiment [3] concerns the target T3, panel of 468 kinases (Homo sapiens, UniProt P09619).
T3 construct: purchased KINOMEscan (ScanMAX) service
The note with it: PDGFRB; 1 μM; read-out: % control.

Experiment [4] has as its target T4, panel of 468 kinases (Homo sapiens, UniProt Q9H3Y6).
T4 construct: purchased KINOMEscan (ScanMAX) service
As to conditions: SRMS; 1 μM; read-out: % control.

Experiment [5] deals with T5, panel of 468 kinases (Homo sapiens, UniProt P49674).
T5 construct: purchased KINOMEscan (ScanMAX) service
T5 sequence (P49674 whole entry): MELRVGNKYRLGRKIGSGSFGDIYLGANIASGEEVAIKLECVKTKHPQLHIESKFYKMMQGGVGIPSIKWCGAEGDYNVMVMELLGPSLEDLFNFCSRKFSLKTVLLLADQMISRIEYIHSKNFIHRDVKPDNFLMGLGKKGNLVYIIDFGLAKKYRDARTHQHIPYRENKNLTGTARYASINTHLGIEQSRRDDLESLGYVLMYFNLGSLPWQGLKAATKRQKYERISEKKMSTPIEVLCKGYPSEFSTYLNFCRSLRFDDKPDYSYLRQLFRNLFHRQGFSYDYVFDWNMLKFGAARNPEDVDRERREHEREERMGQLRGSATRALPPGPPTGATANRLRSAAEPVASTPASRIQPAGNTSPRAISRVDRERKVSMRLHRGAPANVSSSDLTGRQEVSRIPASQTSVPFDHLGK
The note with it: CSNK1E; 1 μM; read-out: % control.

In experiment [6] the target is T6, panel of 468 kinases (Homo sapiens, UniProt P51957).
T6 construct: purchased KINOMEscan (ScanMAX) service
T6 sequence (P51957 whole entry): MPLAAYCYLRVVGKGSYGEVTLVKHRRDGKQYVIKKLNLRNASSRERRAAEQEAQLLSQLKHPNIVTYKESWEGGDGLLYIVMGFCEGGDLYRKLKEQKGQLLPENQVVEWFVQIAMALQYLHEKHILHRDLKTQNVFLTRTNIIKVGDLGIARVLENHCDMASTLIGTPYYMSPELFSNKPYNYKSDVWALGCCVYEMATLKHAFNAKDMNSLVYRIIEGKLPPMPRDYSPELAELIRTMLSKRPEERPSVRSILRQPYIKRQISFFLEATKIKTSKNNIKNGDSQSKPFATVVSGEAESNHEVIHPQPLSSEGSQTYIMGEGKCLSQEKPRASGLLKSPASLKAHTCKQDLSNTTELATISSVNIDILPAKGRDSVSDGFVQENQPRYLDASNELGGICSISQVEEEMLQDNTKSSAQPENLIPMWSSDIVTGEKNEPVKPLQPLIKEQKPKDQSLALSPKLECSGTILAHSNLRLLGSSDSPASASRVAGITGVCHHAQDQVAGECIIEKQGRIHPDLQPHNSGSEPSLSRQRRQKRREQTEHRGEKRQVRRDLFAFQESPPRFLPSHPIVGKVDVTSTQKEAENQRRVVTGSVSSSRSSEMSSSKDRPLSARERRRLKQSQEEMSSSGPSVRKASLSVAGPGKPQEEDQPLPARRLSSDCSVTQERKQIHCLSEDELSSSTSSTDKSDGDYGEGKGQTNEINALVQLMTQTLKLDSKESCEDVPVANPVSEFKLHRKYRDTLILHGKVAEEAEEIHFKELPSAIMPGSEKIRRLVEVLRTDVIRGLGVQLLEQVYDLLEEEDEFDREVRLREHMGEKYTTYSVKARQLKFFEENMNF
As to conditions: NEK4; 1 μM; read-out: % control.

Experiment [7] addresses T7, panel of 468 kinases (Homo sapiens, UniProt O14976).
T7 construct: purchased KINOMEscan (ScanMAX) service
T7 sequence (O14976 1-1311): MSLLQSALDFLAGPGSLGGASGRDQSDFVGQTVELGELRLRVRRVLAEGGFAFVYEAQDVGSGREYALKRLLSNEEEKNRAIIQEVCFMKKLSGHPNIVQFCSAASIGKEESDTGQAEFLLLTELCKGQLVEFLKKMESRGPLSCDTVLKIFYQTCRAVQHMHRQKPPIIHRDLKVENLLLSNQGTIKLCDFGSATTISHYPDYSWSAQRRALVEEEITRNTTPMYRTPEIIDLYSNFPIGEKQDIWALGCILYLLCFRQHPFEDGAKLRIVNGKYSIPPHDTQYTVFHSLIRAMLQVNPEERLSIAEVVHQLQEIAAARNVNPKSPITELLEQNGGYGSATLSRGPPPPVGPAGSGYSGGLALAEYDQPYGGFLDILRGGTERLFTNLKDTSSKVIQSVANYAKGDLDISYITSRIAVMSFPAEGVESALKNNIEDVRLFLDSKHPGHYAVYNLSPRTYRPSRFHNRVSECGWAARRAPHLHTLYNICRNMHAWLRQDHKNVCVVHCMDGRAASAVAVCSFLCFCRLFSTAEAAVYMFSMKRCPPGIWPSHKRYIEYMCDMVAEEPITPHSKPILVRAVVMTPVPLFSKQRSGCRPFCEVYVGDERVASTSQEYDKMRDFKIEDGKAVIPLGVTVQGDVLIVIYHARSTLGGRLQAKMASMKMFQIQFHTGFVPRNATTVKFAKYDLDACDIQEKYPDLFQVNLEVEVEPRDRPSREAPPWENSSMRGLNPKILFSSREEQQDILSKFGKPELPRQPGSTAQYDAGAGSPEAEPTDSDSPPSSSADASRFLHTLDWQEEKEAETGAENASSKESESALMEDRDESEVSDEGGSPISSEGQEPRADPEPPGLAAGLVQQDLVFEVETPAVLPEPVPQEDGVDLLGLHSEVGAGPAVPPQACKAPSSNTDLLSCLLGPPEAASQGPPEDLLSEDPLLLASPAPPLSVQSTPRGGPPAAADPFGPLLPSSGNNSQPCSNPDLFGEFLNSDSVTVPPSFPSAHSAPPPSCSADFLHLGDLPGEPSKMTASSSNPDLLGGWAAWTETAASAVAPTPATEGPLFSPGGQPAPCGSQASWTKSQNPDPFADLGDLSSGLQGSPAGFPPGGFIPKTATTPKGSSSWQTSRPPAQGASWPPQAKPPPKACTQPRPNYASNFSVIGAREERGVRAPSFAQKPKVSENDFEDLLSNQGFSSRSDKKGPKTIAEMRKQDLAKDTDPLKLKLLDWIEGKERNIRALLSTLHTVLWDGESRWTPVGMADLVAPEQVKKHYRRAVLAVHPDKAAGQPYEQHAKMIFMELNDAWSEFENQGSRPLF
As to conditions: GAK; 1 μM; read-out: % control.

T4 sequence (Q9H3Y6 whole entry): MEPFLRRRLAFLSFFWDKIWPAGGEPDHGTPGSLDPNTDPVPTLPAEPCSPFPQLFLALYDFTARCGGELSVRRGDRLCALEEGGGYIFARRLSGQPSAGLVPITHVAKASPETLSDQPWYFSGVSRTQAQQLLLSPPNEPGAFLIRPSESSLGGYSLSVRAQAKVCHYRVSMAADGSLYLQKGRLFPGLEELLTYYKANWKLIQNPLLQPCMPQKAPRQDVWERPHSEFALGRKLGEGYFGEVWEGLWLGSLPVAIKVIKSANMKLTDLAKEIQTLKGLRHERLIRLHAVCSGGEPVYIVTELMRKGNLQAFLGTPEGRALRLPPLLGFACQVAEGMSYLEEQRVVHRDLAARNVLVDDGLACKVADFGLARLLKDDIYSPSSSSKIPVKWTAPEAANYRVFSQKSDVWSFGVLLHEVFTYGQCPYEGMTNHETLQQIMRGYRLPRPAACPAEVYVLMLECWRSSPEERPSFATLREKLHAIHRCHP
T1 sequence (P19525 whole entry): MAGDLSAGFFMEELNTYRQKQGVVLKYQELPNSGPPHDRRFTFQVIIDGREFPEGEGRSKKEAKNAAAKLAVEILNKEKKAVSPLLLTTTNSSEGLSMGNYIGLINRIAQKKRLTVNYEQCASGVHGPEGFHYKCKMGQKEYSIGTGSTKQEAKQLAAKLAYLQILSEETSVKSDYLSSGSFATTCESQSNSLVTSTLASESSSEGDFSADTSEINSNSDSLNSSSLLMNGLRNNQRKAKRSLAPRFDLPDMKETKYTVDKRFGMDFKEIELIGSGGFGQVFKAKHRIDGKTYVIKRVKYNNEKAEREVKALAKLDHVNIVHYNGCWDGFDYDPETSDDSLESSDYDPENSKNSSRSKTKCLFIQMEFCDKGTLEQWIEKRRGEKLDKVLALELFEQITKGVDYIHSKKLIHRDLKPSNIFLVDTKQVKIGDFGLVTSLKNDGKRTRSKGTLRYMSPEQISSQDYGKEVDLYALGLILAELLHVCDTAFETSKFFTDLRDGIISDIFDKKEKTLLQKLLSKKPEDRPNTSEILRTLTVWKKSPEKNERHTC
T3 sequence (P09619 33-1106): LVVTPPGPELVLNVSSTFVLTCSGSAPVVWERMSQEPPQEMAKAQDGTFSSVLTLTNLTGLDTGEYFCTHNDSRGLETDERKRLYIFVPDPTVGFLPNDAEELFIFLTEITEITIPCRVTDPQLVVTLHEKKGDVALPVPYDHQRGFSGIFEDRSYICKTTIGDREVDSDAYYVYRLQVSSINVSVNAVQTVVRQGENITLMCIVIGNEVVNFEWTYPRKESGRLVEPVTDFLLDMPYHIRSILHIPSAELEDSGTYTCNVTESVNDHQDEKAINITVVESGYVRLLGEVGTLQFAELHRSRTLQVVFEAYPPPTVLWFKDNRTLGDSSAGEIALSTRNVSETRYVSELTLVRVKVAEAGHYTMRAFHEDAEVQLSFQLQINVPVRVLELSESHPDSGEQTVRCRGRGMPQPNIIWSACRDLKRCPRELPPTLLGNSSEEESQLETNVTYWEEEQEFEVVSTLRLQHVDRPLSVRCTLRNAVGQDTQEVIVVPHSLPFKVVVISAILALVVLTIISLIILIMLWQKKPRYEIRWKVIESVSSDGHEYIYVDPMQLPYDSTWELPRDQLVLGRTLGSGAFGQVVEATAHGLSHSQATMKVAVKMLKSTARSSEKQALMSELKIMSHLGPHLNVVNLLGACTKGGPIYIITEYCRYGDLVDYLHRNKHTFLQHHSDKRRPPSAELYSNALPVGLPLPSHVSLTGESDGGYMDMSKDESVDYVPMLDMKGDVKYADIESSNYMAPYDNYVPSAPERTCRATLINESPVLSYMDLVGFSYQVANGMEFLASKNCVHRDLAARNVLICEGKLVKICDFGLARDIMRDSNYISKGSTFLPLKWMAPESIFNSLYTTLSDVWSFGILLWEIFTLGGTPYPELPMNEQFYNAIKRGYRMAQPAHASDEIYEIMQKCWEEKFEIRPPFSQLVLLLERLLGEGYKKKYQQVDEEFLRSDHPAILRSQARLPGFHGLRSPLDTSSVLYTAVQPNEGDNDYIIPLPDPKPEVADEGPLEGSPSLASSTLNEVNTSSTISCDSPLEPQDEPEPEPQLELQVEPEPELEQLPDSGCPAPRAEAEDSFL
T2 sequence (P57059 whole entry): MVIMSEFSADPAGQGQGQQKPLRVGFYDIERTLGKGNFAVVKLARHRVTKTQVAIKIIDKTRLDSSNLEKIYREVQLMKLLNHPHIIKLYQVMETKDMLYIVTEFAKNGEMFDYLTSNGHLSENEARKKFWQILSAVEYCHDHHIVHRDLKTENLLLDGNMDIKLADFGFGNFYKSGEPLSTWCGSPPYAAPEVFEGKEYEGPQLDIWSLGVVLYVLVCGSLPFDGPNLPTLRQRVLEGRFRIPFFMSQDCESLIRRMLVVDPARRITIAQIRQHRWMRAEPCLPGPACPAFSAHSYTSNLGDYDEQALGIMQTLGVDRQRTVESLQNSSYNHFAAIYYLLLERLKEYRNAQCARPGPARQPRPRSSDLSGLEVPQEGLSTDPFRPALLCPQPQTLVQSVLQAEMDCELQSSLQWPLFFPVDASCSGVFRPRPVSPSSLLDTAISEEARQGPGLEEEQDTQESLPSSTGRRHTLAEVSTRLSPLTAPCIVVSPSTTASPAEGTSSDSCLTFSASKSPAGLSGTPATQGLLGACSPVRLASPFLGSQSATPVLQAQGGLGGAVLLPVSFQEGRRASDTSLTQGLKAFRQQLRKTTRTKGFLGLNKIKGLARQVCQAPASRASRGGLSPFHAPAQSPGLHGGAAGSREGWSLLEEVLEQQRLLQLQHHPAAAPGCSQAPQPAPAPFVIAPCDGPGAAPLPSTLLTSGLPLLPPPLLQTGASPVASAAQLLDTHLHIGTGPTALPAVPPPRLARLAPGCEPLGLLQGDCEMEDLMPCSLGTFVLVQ

Turning to `CNc1nc(Nc2ccc(S(=O)(=O)N3CCC(N4CCOCC4)CC3)cc2OC)nc2[nH]cc(Cl)c12` [Compound 12, 5-chloro-N2-(2-methoxy-4-((4-morpholinopiperidin-1-yl)sulfonyl)phenyl)-N4-methyl-7H-pyrrolo[2,3-d]pyrimidine-2,4-diamine], the remaining binding at 1 µM on panel of 468 kinases [1] came to 100%; on panel of 468 kinases [2] it was 100%; on panel of 468 kinases [3], 89%; at panel of 468 kinases [4], 66%; on panel of 468 kinases [5], 18%; on panel of 468 kinases [6] it was 100%. At panel of 468 kinases [7], the remaining binding at 1 µM was 3.8%.
Take `CNc1nc(Nc2ccc(P3(=O)CCN(C4CCOCC4)CC3)cc2OC)nc2[nH]cc(Cl)c12` [Compound 77, 4-(4-((5-chloro-4-(methylamino)-7H-pyrrolo[2,3-d]pyrimidin-2-yl)amino)-3-methoxyphenyl)-1-(tetrahydro-2H-pyran-4-yl)-1,4-azaphosphinane 4-oxide]: the remaining binding at 1 µM at panel of 468 kinases [1] turned out to be 100%; on panel of 468 kinases [2], 100%; on panel of 468 kinases [3], 100%; at panel of 468 kinases [4] it was 64%; at panel of 468 kinases [5], 15%; on panel of 468 kinases [6] it was 100%. Moreover, the remaining binding at 1 µM at panel of 468 kinases [7] was 0.9%.
Take `CNc1nc(Nc2ccc(C(=O)N3CCC(N4CCOCC4)CC3)c3c2OCO3)nc2[nH]cc(Cl)c12` [Compound 75, (7-((5-chloro-4-(methylamino)-7H-pyrrolo[2,3-d]pyrimidin-2-yl)amino)benzo[d][1,3]dioxol-4-yl)(4-morpholinopiperidin-1-yl)methanone]: the remaining binding at 1 µM at panel of 468 kinases [1] worked out at 100%; on panel of 468 kinases [2], 100%; on panel of 468 kinases [3], 56%; at panel of 468 kinases [4] it was 70%; on panel of 468 kinases [5], 30%; at panel of 468 kinases [6] it was 100%. Also, on panel of 468 kinases [7], the remaining binding at 1 µM was determined as 0.55%.
